What all share (assay): relative viability (nuclei count vs DMSO), 5 days (fraction); higher = more cells survive
Compound in the test “Daporinad + Tozasertib”: O=C(/C=C/c1cccnc1)NCCCCC1CCN(C(=O)c2ccccc2)CC1 [Daporinad] + Cc1cc(Nc2cc(N3CCN(C)CC3)nc(Sc3ccc(NC(=O)C4CC4)cc3)n2)n[nH]1 [Tozasertib] (partner 0.1 µM)
An outline of the steps:
(§1)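 Each reported value is a median over duplicate plates. It expresses relative viability: treated-well nuclei count divided by vehicle-well nuclei count. Lung cancer cell lines in 1536-well plates were dosed by pin tool a day after seeding, alone with one drug or with a fixed anchor-drug dose plus five library-drug doses (not always all listed) in √10 steps, and nuclei were counted after 5 days.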

Compound in the test “R406 + Pictilisib”: COc1cc(Nc2ncc(F)c(Nc3ccc4c(n3)NC(=O)C(C)(C)O4)n2)cc(OC)c1OC [R406] + CS(=O)(=O)N1CCN(Cc2cc3nc(-c4cccc5[nH]ncc45)nc(N4CCOCC4)c3s2)CC1 [Pictilisib] (partner 1 µM)
Summed up:
as §1

Compound in the test “Daporinad + Olaparib”: O=C(/C=C/c1cccnc1)NCCCCC1CCN(C(=O)c2ccccc2)CC1 [Daporinad] + O=C(c1cc(Cc2n[nH]c(=O)c3ccccc23)ccc1F)N1CCN(C(=O)C2CC2)CC1 [Olaparib] (partner 8 µM)
Summed up:
as §1

Compound in the test “R406 + Foretinib”: COc1cc(Nc2ncc(F)c(Nc3ccc4c(n3)NC(=O)C(C)(C)O4)n2)cc(OC)c1OC [R406] + COc1cc2c(Oc3ccc(NC(=O)C4(C(=O)Nc5ccc(F)cc5)CC4)cc3F)ccnc2cc1OCCCN1CCOCC1 [Foretinib] (partner 0.25 µM)
Summed up:
as §1

As to RERF-LC-KJ, the relative viability with Daporinad + Tozasertib (first compound 0.0005 µM) was found to be 0.559; in the test with Daporinad + Tozasertib (first compound 0.001581 µM), 0.45; in the test with Daporinad + Tozasertib (first compound 0.005 µM) it was 0.562; with Daporinad + Tozasertib (first compound 0.01581 µM), 0.517; in the test with R406 + Pictilisib (first compound 0.08 µM), 0.749; with R406 + Pictilisib (first compound 0.253 µM), 0.488. Also, the relative viability with R406 + Pictilisib (first compound 0.8 µM) came out at 0.64; in the test with R406 + Pictilisib (first compound 2.53 µM) it was 0.43; in the test with R406 + Pictilisib (first compound 8 µM), 0.502; in the test with Daporinad + Olaparib (first compound 0.0005 µM), 0.867; with Daporinad + Olaparib (first compound 0.001581 µM), 0.896; in the test with Daporinad + Olaparib (first compound 0.005 µM), 0.82. The relative viability with Daporinad + Olaparib (first compound 0.01581 µM) was determined as 0.757; with R406 + Foretinib (first compound 0.08 µM), 0.937; with R406 + Foretinib (first compound 0.253 µM) it was 0.951; with R406 + Foretinib (first compound 0.8 µM) it was 0.997; in the test with R406 + Foretinib (first compound 2.53 µM) it was 0.785; in the test with R406 + Foretinib (first compound 8 µM), 0.809.

SK-LU-1: the relative viability with Daporinad + Tozasertib (first compound 0.0005 µM) came out at 0.316; with Daporinad + Tozasertib (first compound 0.001581 µM) it was 0.289; in the test with Daporinad + Tozasertib (first compound 0.005 µM) it was 0.281; in the test with Daporinad + Tozasertib (first compound 0.01581 µM) it was 0.35; in the test with R406 + Pictilisib (first compound 0.08 µM) it was 0.46; in the test with R406 + Pictilisib (first compound 0.253 µM), 0.658. In addition, the relative viability with R406 + Pictilisib (first compound 0.8 µM) was determined as 0.546; with R406 + Pictilisib (first compound 2.53 µM), 0.277; with R406 + Pictilisib (first compound 8 µM), 0.173; with Daporinad + Olaparib (first compound 0.0005 µM), 0.426; with Daporinad + Olaparib (first compound 0.001581 µM) it was 0.548; with Daporinad + Olaparib (first compound 0.005 µM), 0.394. Moreover, the relative viability worked out at 0.299 in the test with Daporinad + Olaparib (first compound 0.01581 µM); 0.708 in the test with R406 + Foretinib (first compound 0.08 µM); 0.816 with R406 + Foretinib (first compound 0.253 µM); 0.992 with R406 + Foretinib (first compound 0.8 µM); 0.439 in the test with R406 + Foretinib (first compound 2.53 µM); 0.12 with R406 + Foretinib (first compound 8 µM).

For the cell line SK-MES-1, the relative viability is 0.85 with Daporinad + Tozasertib (first compound 0.0005 µM); 0.948 with Daporinad + Tozasertib (first compound 0.001581 µM); 1.08 with Daporinad + Tozasertib (first compound 0.005 µM); 0.865 with Daporinad + Tozasertib (first compound 0.01581 µM); 0.34 with R406 + Pictilisib (first compound 0.08 µM); 0.325 with R406 + Pictilisib (first compound 0.253 µM). The relative viability stood at 0.333 with R406 + Pictilisib (first compound 0.8 µM); 0.234 with R406 + Pictilisib (first compound 2.53 µM); 0.195 with R406 + Pictilisib (first compound 8 µM); 0.603 with Daporinad + Olaparib (first compound 0.0005 µM); 0.636 with Daporinad + Olaparib (first compound 0.001581 µM); 0.423 in the test with Daporinad + Olaparib (first compound 0.005 µM). Further, the relative viability turned out to be 0.323 in the test with Daporinad + Olaparib (first compound 0.01581 µM); 0.892 in the test with R406 + Foretinib (first compound 0.08 µM); 0.921 in the test with R406 + Foretinib (first compound 0.253 µM); 0.976 with R406 + Foretinib (first compound 0.8 µM); 0.49 with R406 + Foretinib (first compound 2.53 µM); 0.396 with R406 + Foretinib (first compound 8 µM).

As for SW 1573, the relative viability with Daporinad + Tozasertib (first compound 0.0005 µM) amounted to 0.185; with Daporinad + Tozasertib (first compound 0.001581 µM) it was 0.183; with Daporinad + Tozasertib (first compound 0.005 µM) it was 0.166; in the test with Daporinad + Tozasertib (first compound 0.01581 µM), 0.178; with R406 + Pictilisib (first compound 0.08 µM) it was 0.45; with R406 + Pictilisib (first compound 0.253 µM), 0.499. Also, the relative viability amounted to 0.543 with R406 + Pictilisib (first compound 0.8 µM); 0.422 in the test with R406 + Pictilisib (first compound 2.53 µM); 0.31 with R406 + Pictilisib (first compound 8 µM); 0.367 in the test with Daporinad + Olaparib (first compound 0.0005 µM); 0.312 in the test with Daporinad + Olaparib (first compound 0.001581 µM); 0.323 with Daporinad + Olaparib (first compound 0.005 µM). Besides, the relative viability in the test with Daporinad + Olaparib (first compound 0.01581 µM) was determined as 0.274; in the test with R406 + Foretinib (first compound 0.08 µM), 0.908; in the test with R406 + Foretinib (first compound 0.253 µM), 0.915; in the test with R406 + Foretinib (first compound 0.8 µM), 0.887; with R406 + Foretinib (first compound 2.53 µM), 0.932; in the test with R406 + Foretinib (first compound 8 µM) it was 0.665.

Take UMC-11: the relative viability came to 0.21 in the test with Daporinad + Tozasertib (first compound 0.0005 µM); 0.208 with Daporinad + Tozasertib (first compound 0.001581 µM); 0.207 in the test with Daporinad + Tozasertib (first compound 0.005 µM); 0.2 in the test with Daporinad + Tozasertib (first compound 0.01581 µM); 0.864 with R406 + Pictilisib (first compound 0.08 µM); 1.07 with R406 + Pictilisib (first compound 0.253 µM). Besides, the relative viability with R406 + Pictilisib (first compound 0.8 µM) amounted to 0.863; in the test with R406 + Pictilisib (first compound 2.53 µM) it was 0.568; in the test with R406 + Pictilisib (first compound 8 µM), 0.369; with Daporinad + Olaparib (first compound 0.0005 µM), 0.294; with Daporinad + Olaparib (first compound 0.001581 µM), 0.339; with Daporinad + Olaparib (first compound 0.005 µM), 0.343. Also, the relative viability in the test with Daporinad + Olaparib (first compound 0.01581 µM) was found to be 0.309; with R406 + Foretinib (first compound 0.08 µM), 1.11; with R406 + Foretinib (first compound 0.253 µM), 1.09; with R406 + Foretinib (first compound 0.8 µM), 0.987; with R406 + Foretinib (first compound 2.53 µM) it was 0.789; with R406 + Foretinib (first compound 8 µM), 0.499.

The record behind these values is the supplement of paper PMC10307832.
